pEC50, pIC50: −log10 of the molar value.
What was measured:
[1] = Inhibition of GSK3 expressed in CHO-IR cells expressing human insulin receptor assessed as glycogen synthase activation after 30 mins by filter paper assay; type: cell-based, Cavia porcellus
[2] = Inhibition of human GSK3 using biotin-CREB peptide substrate after 1 hr by scintillation counting method

| SMILES | pEC50 [1] | pIC50 [2] |
| --- | --- | --- |
| Cc1nc(-c2cnc(NCCNc3ccc([N+](=O)[O-])c(N)n3)nc2-c2ccc(Cl)cc2Cl)[nH]c1C | 6.36 | 8.52 |
| CN1CCCC1CCN(CCNc1ccc([N+](=O)[O-])cn1)c1ncc(-n2ccnc2)c(-c2ccc(Cl)cc2Cl)n1 (centres undefined) | 6.96 | 7.57 |
| N#Cc1ccc(-c2nc(NCCNc3ccc([N+](=O)[O-])cn3)ncc2C(=O)N2CCOCC2)cc1 |  | 6.79 |
| Cc1cc(NCCNc2ncc(-n3ccnc3)c(-c3ccc(Cl)cc3Cl)n2)nc(N)n1 |  | < 5.00 |
| Nc1nc(NCCNc2ncc(NC(=O)NCCN3CCOCC3)c(-c3ccc(Cl)cc3Cl)n2)ccc1[N+](=O)[O-] | 5.52 | 7.80 |
| CNc1nc(NCCNc2ncc(-n3ccnc3)c(-c3ccc(Cl)cc3Cl)n2)ccc1[N+](=O)[O-] |  | 6.24 |
| O=[N+]([O-])c1ccc(NCCNc2ncc(-n3ccnc3)c(-c3ccc(Cl)cc3Cl)n2)nc1O |  | 6.00 |
| N#Cc1ccc(-c2nc(NCCNc3ccc([N+](=O)[O-])cn3)ncc2C(=O)NCCN)cc1 |  | 6.82 |
| N#Cc1cnc(NCCNc2ncc(-n3ccnc3)c(-c3ccc(Cl)cc3Cl)n2)nc1N | 5.03 | 6.63 |
| O=[N+]([O-])c1ccc(NCCNc2ncc(-n3ccnc3)c(-c3ccc(Cl)c(Cl)c3)n2)nc1 |  | 6.19 |
| CC(C)(C)NC(=O)c1cnc(NCCNc2ccc([N+](=O)[O-])cn2)nc1-c1ccc(C#N)cc1 | < 5.00 | 6.96 |
| N#Cc1ccc(-c2nc(NCCNc3ccc([N+](=O)[O-])cn3)ncc2C(=O)OCc2ccccc2)cc1 |  | 6.72 |
| COc1ccc(OC)c(-c2nc(NCCNc3ccc([N+](=O)[O-])cn3)ncc2-n2ccnc2)c1 |  | 5.31 |
| COc1ccc(-c2nc(NCCNc3ccc([N+](=O)[O-])cn3)ncc2-n2ccnc2)cc1 | 5.68 | 7.17 |
| CNC(=O)Nc1cnc(NCCNc2ccc([N+](=O)[O-])c(N)n2)nc1-c1ccc(Cl)cc1Cl | 5.52 | 7.57 |
| O=[N+]([O-])c1ccc(NCCNc2ncc(-n3ccnc3)c(-c3ccc(N4CCCCC4)cc3)n2)nc1 |  | 6.11 |
| O=[N+]([O-])c1ccc(NCCNc2ncc(-n3cnnn3)c(-c3ccc(Cl)cc3Cl)n2)nc1 | 6.55 | 7.82 |
| CCc1ccc(-c2nc(NCCNc3ccc([N+](=O)[O-])cn3)ncc2-n2ccnc2)cc1 | 7.00 | 8.05 |
| N#Cc1ccc(-c2nc(NCCNc3ccc([N+](=O)[O-])cn3)ncc2C(=O)O)cc1 | < 5.00 | 7.46 |
| COc1nc(NCCNc2ncc(-n3ccnc3)c(-c3ccc(Cl)cc3Cl)n2)ccc1[N+](=O)[O-] |  | 7.09 |
| N#Cc1ccc(-c2nc(NCCNc3ccc([N+](=O)[O-])cn3)ncc2C(=O)N2CCNCC2)cc1 | < 5.00 | 6.38 |
| O=[N+]([O-])c1ccc(NCCN(CCc2ccccn2)c2ncc(-n3ccnc3)c(-c3ccc(Cl)cc3Cl)n2)nc1 |  | 6.95 |
| CNC(=O)c1cnc(NCCNc2ccc([N+](=O)[O-])cn2)nc1-c1ccc(C#N)cc1 | < 5.00 | 7.48 |
| CCOC(=O)c1cnc(NCCNc2ccc([N+](=O)[O-])cn2)nc1-c1ccc(C#N)cc1 | 5.66 | 7.28 |
| O=[N+]([O-])c1ccc(NCCNc2ncc(-n3ccnc3)c(-c3ccc(N4CCNCC4)cc3)n2)nc1 |  | 6.78 |
| O=[N+]([O-])c1ccc(NCCNc2ncc(-n3ccnc3)c(-c3ccc(N4CCOCC4)cc3)n2)nc1 | 5.21 | 7.54 |

| SMILES | pEC50 [1] | pIC50 [2] |
| --- | --- | --- |
| Cc1noc(-c2cnc(NCCNc3ccc([N+](=O)[O-])cn3)nc2-c2ccc(C#N)cc2)n1 | 5.82 | 7.48 |
| O=[N+]([O-])c1ccc(NCCN(CCN2CCCCCC2)c2ncc(-n3ccnc3)c(-c3ccc(Cl)cc3Cl)n2)nc1 | 6.96 | 7.49 |
| O=[N+]([O-])c1ccc(NCCNc2ncc(-n3ccnc3)c(-c3ccccc3Cl)n2)nc1 | 5.91 | 7.62 |
| CC(C)(C)OC(=O)N1CCN(c2ccc(-c3nc(NCCNc4ccc([N+](=O)[O-])cn4)ncc3-n3ccnc3)cc2)CC1 |  | 5.71 |
| O=[N+]([O-])c1ccc(NCCNc2ncc(-n3ccnc3)c(-c3ccc(F)cc3F)n2)nc1 | 6.05 | 7.51 |
| CC(=O)Nc1cnc(NCCNc2ccc([N+](=O)[O-])c(N)n2)nc1-c1ccc(Cl)cc1Cl | 6.72 | 8.22 |
| CN(C)CCOC(=O)c1cnc(NCCNc2ccc([N+](=O)[O-])cn2)nc1-c1ccc(C#N)cc1 | 5.47 | 7.30 |
| N#Cc1ccc(-c2nc(NCCNc3ccc([N+](=O)[O-])cn3)ncc2C(=O)NCc2ccccc2)cc1 |  | 7.12 |
| N#Cc1ccc(-c2nc(NCCNc3ccc([N+](=O)[O-])cn3)ncc2C(=O)NCc2ccncc2)cc1 |  | 7.33 |
| CCOC(=O)C1=C(c2ccncc2)N=C(NCCNc2ccc([N+](=O)[O-])cn2)NC1c1ccc(C(N)=O)cc1 (centres undefined) |  | 5.43 |
| CS(=O)(=O)Nc1cnc(NCCNc2ccc([N+](=O)[O-])c(N)n2)nc1-c1ccc(Cl)cc1Cl | 6.41 | 8.05 |
| O=[N+]([O-])c1ccc(NCCNc2ncc(-n3ccnc3)c(-c3ccccc3)n2)nc1 | 4.62 | 6.71 |
| O=[N+]([O-])c1ccc(NCCN(CCN2CCOCC2)c2ncc(-n3ccnc3)c(-c3ccc(Cl)cc3Cl)n2)nc1 | 6.55 | 7.82 |
| CCOC(=O)c1c(CC)nc(NCCNc2ccc([N+](=O)[O-])cn2)nc1-c1ccc(C(N)=O)cc1 | 5.02 | 6.92 |
| Nc1nc(NCCNc2ncc(-n3cccc(C(F)(F)F)c3=O)c(-c3ccc(Cl)cc3Cl)n2)ccc1[N+](=O)[O-] | 7.40 | 8.40 |
| CN(C)CCN(C)C(=O)c1cnc(NCCNc2ccc([N+](=O)[O-])cn2)nc1-c1ccc(C#N)cc1 | < 5.00 | 6.85 |
| N#Cc1ccc(-c2nc(NCCNc3ccc([N+](=O)[O-])cn3)ncc2C(=O)OCCO)cc1 | 5.08 | 7.29 |
| CN(C)C(=O)c1cnc(NCCNc2ccc([N+](=O)[O-])cn2)nc1-c1ccc(C#N)cc1 | 5.06 | 7.21 |
| Clc1ccc(-c2nc(NCCNc3ncccn3)ncc2-n2ccnc2)c(Cl)c1 |  | < 5.00 |
| COc1cccc(-c2nc(NCCNc3ccc([N+](=O)[O-])cn3)ncc2-n2ccnc2)c1 |  | 6.46 |
| N#Cc1ccc(-c2nc(NCCNc3ccc([N+](=O)[O-])cn3)ncc2-n2cncn2)cc1 | 6.00 | 7.72 |
| CN1CCN(C)C(CN(CCNc2ccc([N+](=O)[O-])cn2)c2ncc(-n3ccnc3)c(-c3ccc(Cl)cc3Cl)n2)C1 (centres undefined) |  | 6.92 |
| Nc1nc(NCCNc2ncc(CN3CCOCC3)c(-c3ccc(Cl)cc3Cl)n2)ccc1[N+](=O)[O-] | 6.08 | 7.77 |
| CN(C)CCNC(=O)c1cnc(NCCNc2ccc([N+](=O)[O-])cn2)nc1-c1ccc(C#N)cc1 | < 5.00 | 7.15 |
| N#Cc1ccc(NCCNc2ncc(-n3ccnc3)c(-c3ccc(Cl)cc3Cl)n2)nc1N | 6.00 | 7.25 |
| CC(C)[C@H](N)C(=O)Nc1cnc(NCCNc2ccc([N+](=O)[O-])c(N)n2)nc1-c1ccc(Cl)cc1Cl | 6.07 | 7.85 |

| SMILES | pEC50 [1] | pIC50 [2] |
| --- | --- | --- |
| CC(=O)c1ccc(NCCNc2ncc(-n3ccnc3)c(-c3ccc(Cl)cc3Cl)n2)nc1 |  | 5.23 |
| Clc1ccc(-c2nc(NCCNc3cc(Cl)ncn3)ncc2-n2ccnc2)c(Cl)c1 | 5.41 | 6.70 |
| CCOC(=O)c1c(-c2ccncc2)nc(NCCNc2ccc([N+](=O)[O-])cn2)nc1-c1ccc(C(N)=O)cc1 |  | 6.85 |
| CN(C)CC(=O)Nc1cnc(NCCNc2ccc([N+](=O)[O-])c(N)n2)nc1-c1ccc(Cl)cc1Cl | 6.17 | 7.60 |
| Cc1ccc(-c2nc(NCCNc3ccc([N+](=O)[O-])cn3)ncc2-n2ccnc2)cc1 | 6.52 | 7.47 |
| CCOC(=O)C1=C(CC)N=C(NCCNc2ccc([N+](=O)[O-])cn2)NC1c1ccc(C(N)=O)cc1 (centres undefined) |  | 5.47 |
| O=[N+]([O-])c1ccc(NCCNc2ncc(-n3ccnc3)c(-c3ccc(F)cc3)n2)nc1 |  | 6.70 |
| Nc1nc(NCCNc2ncc(N3CCNCC3=O)c(-c3ccc(Cl)cc3Cl)n2)ccc1[N+](=O)[O-] | 5.27 | 7.82 |
| Nc1nc(NCCNc2ncc(-c3nc(C(F)(F)F)c[nH]3)c(-c3ccc(Cl)cc3Cl)n2)ccc1[N+](=O)[O-] | 6.77 | 7.47 |
| COc1ccc(-c2nc(NCCNc3ccc([N+](=O)[O-])cn3)ncc2-n2ccnc2)c(OC)c1 | 5.82 | 7.57 |
| COCCN(CCNc1ccc([N+](=O)[O-])cn1)c1ncc(-n2ccnc2)c(-c2ccc(Cl)cc2Cl)n1 |  | 6.76 |
| CC(C)(C)c1c[nH]c(-c2cnc(NCCNc3ccc([N+](=O)[O-])c(N)n3)nc2-c2ccc(Cl)cc2Cl)n1 | 5.97 | 7.57 |
| O=[N+]([O-])c1ccc(NCCNc2ncc(-n3ccnc3)c(-c3ccc(Cl)cc3)n2)nc1 | 5.92 | 7.28 |
| N#Cc1ccc(-c2nc(NCCNc3ccc([N+](=O)[O-])cn3)ncc2C(=O)NCCO)cc1 | < 5.00 | 7.54 |
| FC(F)(F)c1ccnc(NCCNc2ncc(-n3ccnc3)c(-c3ccc(Cl)cc3Cl)n2)n1 |  | 6.42 |
| O=[N+]([O-])c1ccc(OCCNc2ncc(-n3ccnc3)c(-c3ccc(Cl)cc3Cl)n2)nc1 |  | 5.55 |
| CN(C)c1nc(NCCNc2ncc(-n3ccnc3)c(-c3ccc(Cl)cc3Cl)n2)ccc1[N+](=O)[O-] |  | 6.00 |
| CCOC(=O)C1=C(c2ccc([N+](=O)[O-])cc2)N=C(NCCNc2ccc([N+](=O)[O-])cn2)NC1c1ccc(C(N)=O)cc1 (centres undefined) |  | 5.70 |
| Cc1cc([N+](=O)[O-])cnc1NCCNc1ncc(-n2ccnc2)c(-c2ccc(Cl)cc2Cl)n1 |  | 5.47 |
| CC(C)(C)OC(=O)c1cnc(NCCNc2ccc([N+](=O)[O-])cn2)nc1-c1ccc(C#N)cc1 |  | 7.60 |
| N#Cc1ccnc(NCCNc2ncc(-n3ccnc3)c(-c3ccc(Cl)cc3Cl)n2)c1 |  | 6.70 |
| CCOC(=O)c1ccc(NCCNc2ncc(-n3ccnc3)c(-c3ccc(Cl)cc3Cl)n2)nc1 |  | 5.44 |
| COc1ccccc1-c1nc(NCCNc2ccc([N+](=O)[O-])cn2)ncc1-n1ccnc1 |  | 6.05 |
| CN1CCN(c2ccc(-c3nc(NCCNc4ccc([N+](=O)[O-])cn4)ncc3-n3ccnc3)cc2)CC1 |  | 5.95 |
| O=[N+]([O-])c1ccc(NCCNc2ncc(-n3ccnc3)c(-c3ccc(-n4ccnc4)cc3)n2)nc1 |  | 6.91 |
